Experimental data taken from patent US20250152585A1, “PHARMACEUTICAL COMPOUND” (Duke Street Bio Limited, priority 2022, published 2025).

What was measured:
PARP1 [1] = conditions: Johannes et al. J. Med. Chem. 2021; cited from earlier work
[2] = rodent models; compared with first-generation PARP inhibitors; Illuzzi et al. 2022; cited from earlier work
[3] = target: T1, N-terminally FLAG-tagged PARP2 (amino acids 1-583) (Homo sapiens, UniProt Q9UGN5); test: PARP2 probe displacement HTRF assay; assay type: binding; conditions: binned Kd
T1 construct: N-terminally FLAG-tagged PARP2 (amino acids 1-583)
Description: Data analysis was performed identical as for PARP1.

PARP2 = target: T2, PARP2 (Homo sapiens, UniProt Q9UGN5); test: NanoBRET cellular target occupancy assay, PARP2; assay type: cell-based; conditions: HEK293 cells transiently transfected with PARP2-NanoLuc fusion; tracer 2 nM; 2 hours at 37° C.; Kd by Cheng-Prussoff
T2 construct: host or cells: HEK293
From the text: NanoBRET Cellular Target Occupancy Assay

[4] = target: T3, full length N-terminally FLAG-tagged PARP1 (Homo sapiens, UniProt P09874); test: PARP1 probe displacement HTRF assay; conditions: for Kd: PARP1 HTRF, binned Kd; for Selectivity: PARP1 over PARP2, ratio Kd (PARP2)/Kd (PARP1)
[5] = target: T3, full length N-terminally FLAG-tagged PARP1; test: PARP1 biochemical DELFIA assay (auto-PARylation); design: recombinant full length human N-terminally FLAG-tagged PARP1
PARP1 [6] = target: T4, PARP1 (Homo sapiens, UniProt P09874); test: NanoBRET cellular target occupancy assay, PARP1; assay type: cell-based; conditions: for Kd: HEK293 cells transiently transfected with PARP1-NanoLuc fusion, tracer 11 nM, 2 hours at 37° C., Kd by Cheng-Prussoff; for Selectivity: NanoBRET, PARP1 over PARP2, Kd (PARP2)/Kd (PARP1)
T4 construct: host or cells: HEK293

[7] = binned IC50, biochemical auto-PARylation assay

T1 sequence (Q9UGN5 whole entry, the tested form may be a part): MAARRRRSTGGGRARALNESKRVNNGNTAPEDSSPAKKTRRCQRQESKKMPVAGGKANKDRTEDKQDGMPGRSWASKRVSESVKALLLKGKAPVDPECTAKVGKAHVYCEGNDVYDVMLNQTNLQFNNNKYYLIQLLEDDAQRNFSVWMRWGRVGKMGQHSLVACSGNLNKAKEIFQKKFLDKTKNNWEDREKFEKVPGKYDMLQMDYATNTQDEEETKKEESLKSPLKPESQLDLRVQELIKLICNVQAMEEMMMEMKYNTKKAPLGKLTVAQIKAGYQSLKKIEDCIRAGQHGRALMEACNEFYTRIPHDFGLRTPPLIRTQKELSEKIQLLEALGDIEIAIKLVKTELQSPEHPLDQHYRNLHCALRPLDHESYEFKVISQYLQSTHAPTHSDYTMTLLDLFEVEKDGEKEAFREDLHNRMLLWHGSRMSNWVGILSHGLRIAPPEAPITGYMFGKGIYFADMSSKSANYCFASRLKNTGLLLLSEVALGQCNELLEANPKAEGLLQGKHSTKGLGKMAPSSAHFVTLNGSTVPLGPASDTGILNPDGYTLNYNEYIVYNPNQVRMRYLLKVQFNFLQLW
T2 sequence (Q9UGN5 whole entry, the tested form may be a part): as above
T3 sequence (P09874 whole entry): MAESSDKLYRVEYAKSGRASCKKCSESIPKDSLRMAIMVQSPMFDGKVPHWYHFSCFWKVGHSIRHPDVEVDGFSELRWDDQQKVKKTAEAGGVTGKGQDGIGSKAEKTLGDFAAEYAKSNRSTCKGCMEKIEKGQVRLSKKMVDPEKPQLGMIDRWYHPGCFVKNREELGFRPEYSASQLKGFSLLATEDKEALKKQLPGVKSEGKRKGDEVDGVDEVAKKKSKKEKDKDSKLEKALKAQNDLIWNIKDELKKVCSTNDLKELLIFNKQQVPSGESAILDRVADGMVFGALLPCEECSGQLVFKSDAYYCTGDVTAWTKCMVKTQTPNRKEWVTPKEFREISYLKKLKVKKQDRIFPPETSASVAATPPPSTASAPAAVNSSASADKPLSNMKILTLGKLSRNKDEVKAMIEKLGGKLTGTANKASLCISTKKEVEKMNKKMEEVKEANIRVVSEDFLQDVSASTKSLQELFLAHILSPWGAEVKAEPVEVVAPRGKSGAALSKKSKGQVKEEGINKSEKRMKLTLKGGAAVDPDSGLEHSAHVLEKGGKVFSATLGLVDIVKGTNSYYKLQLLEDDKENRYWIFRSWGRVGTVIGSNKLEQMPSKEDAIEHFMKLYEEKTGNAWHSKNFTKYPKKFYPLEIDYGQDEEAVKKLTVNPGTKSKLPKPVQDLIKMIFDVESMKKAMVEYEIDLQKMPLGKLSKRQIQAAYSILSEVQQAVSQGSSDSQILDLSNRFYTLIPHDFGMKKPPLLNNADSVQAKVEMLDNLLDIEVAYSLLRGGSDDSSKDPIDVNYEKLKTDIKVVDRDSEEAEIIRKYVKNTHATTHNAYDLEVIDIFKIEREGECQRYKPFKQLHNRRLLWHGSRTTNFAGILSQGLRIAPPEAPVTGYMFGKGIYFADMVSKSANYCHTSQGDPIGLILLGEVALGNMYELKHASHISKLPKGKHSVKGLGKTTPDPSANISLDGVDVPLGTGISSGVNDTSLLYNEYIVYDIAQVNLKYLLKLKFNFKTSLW
T4 sequence (P09874 whole entry, the tested form may be a part): as the sequence (P09874 whole entry) above

| SMILES | selectivity over PARP2 (PARP1 [1]) | haematotoxicity [2] | Kd ([3]; PARP2 probe displacement HTRF) | Kd (PARP2) | Kd ([4]; PARP1 probe displacement HTRF) | Selectivity ([4]; probe displacement HTRF) | IC50 ([5]; binned IC50, PARP1 biochemical DELFIA assay) | Kd (PARP1 [6]) | Selectivity (PARP1 [6]) | Kd ([3]; probe displacement HTRF) | Kd ([4]; probe displacement HTRF) | IC50 [5, 7] |
| --- | --- | --- | --- | --- | --- | --- | --- | --- | --- | --- | --- | --- |
| CCc1cc2ncc(CN3CCN(c4ccc(C(=O)NC)nc4)CC3)cc2[nH]c1=O [AZD5305] | 500 fold | significantly less haematotoxicity | – | – | – | – | – | – | – | – | – | – |
| CNC(=O)c1ccc(N2CCC(N3CC4(c5nc6ccccc6c(=O)[nH]5)CC3C4)CC2)cn1 [Compound 192, N-methyl-5-(4-(4-(4-oxo-3,4-dihydroquinazolin-2-yl)-2-azabicyclo[2.1.1]hexan-2-yl)piperidin-1-yl)picolinamide] | – | – | 1000 to 10000 nM | 1000 to 10000 nM | < 10 nM | +++ (+++ indicate a value of at least 100) | < 10 nM | < 10 nM | +++ (+++ indicate a value of at least 100) | – | – | – |
| CNC(=O)c1ccc(N2CCC(N3CC4(c5nc6cccc(F)c6c(=O)[nH]5)CC3C4)CC2)c(F)n1 [Compound 228] | – | – | – | > 10000 nM | – | +++ (+++ indicate a value of at least 100) | – | < 10 nM | +++ (+++ indicate a value of at least 100) | 1000 to 10000 nM | < 10 nM | < 10 nM |
| CNC(=O)c1ccc(N2CCC(N3CC4(c5nc6ccc(F)cc6c(=O)[nH]5)CC3C4)CC2)c(F)n1 [Compound 259, 6-fluoro-5-(4-(4-(6-fluoro-4-oxo-3,4-dihydroquinazolin-2-yl)-2-azabicyclo[2.1.1]hexan-2-yl)piperidin-1-yl)-N-methylpicolinamide] | – | – | – | 1000 to 10000 nM | – | +++ (+++ indicate a value of at least 100) | – | < 10 nM | +++ (+++ indicate a value of at least 100) | 100 to 1000 nM | < 10 nM | < 10 nM |
| CNC(=O)c1ccc(N2CCC(N3CC4(c5nc6ccccc6c(=O)[nH]5)CC3C4)CC2)c(F)n1 [Compound 260] | – | – | – | > 10000 nM | – | +++ (+++ indicate a value of at least 100) | – | < 10 nM | +++ (+++ indicate a value of at least 100) | 1000 to 10000 nM | < 10 nM | < 10 nM |
| CNC(=O)c1ccc(N2CCC(N3CC4(c5nc6c(c(=O)[nH]5)CCC6)CC3C4)CC2)cn1 [Compound 295] | – | – | – | > 10000 nM | – | +++ (+++ indicate a value of at least 100) | – | 10 to 100 nM | ++ (++ indicates a value of 50 to less than 100) | > 10000 nM | < 10 nM | < 10 nM |
| CCc1cnc(C23CC(C2)N(C2CCN(c4ccc(C(=O)NC)nc4)CC2)C3)[nH]c1=O [Compound 299, 5-(4-(4-(5-ethyl-6-oxo-1,6-dihydropyrimidin-2-yl)-2-azabicyclo[2.1.1]hexan-2-yl)piperidin-1-yl)-N-methylpicolinamide] | – | – | – | > 10000 nM | – | +++ (+++ indicate a value of at least 100) | – | 10 to 100 nM | +++ (+++ indicate a value of at least 100) | > 10000 nM | < 10 nM | < 10 nM |
| CCc1cnc(C23CC(C2)N(C2CCN(c4ccc(C(=O)NC)nc4F)CC2)C3)[nH]c1=O [Compound 300] | – | – | – | > 10000 nM | – | +++ (+++ indicate a value of at least 100) | – | < 10 nM | +++ (+++ indicate a value of at least 100) | 1000 to 10000 nM | < 10 nM | < 10 nM |
| CNC(=O)c1ccc(N2CCC(N3CC4(c5nc6c(c(=O)[nH]5)CCC6)CC3C4)CC2)c(F)n1 [Compound 302] | – | – | – | > 10000 nM | – | +++ (+++ indicate a value of at least 100) | – | 10 to 100 nM | +++ (+++ indicate a value of at least 100) | > 10000 nM | < 10 nM | < 10 nM |
| CNC(=O)c1ccc(N2CCC(N3CC4(c5nc6c(c(=O)[nH]5)CCCN6)CC3C4)CC2)cn1 [Compound 312] | – | – | – | 1000 to 10000 nM | – | +++ (+++ indicate a value of at least 100) | – | 100 to 1000 nM | ++ (++ indicates a value of 50 to less than 100) | 100 to 1000 nM | < 10 nM | < 10 nM |
| CNC(=O)c1ccc(N2CCC(N3CC4(c5nc6c(c(=O)[nH]5)CCCN6C)CC3C4)CC2)cn1 [Compound 330] | – | – | – | 100 to 1000 nM | – | + (+ indicates a value of 10 to less than 50) | – | 10 to 100 nM | + (+ indicates a value of 10 to less than 50) | 10 to 100 nM | < 10 nM | < 10 nM |
